Entries after “also recorded” stand apart in the source; their conditions may differ. Like-named read-outs stand apart in the source and are kept apart here.
What was measured:
[1] = set-up: species or system Sprague-Dawley rats; conditions: rat, in vivo, iv
Experimental: A single dose intravenous pharmacokinetics study with N-(pyrazine) carbonyl-L-phenylalanine-L-leucine boronic acid (1) was conducted in Sprague-Dawley rats (140 to 280 g). Animals were assigned to 3 groups (6/sex in Groups 1 and 2; 9/sex in Group 3). Animals in groups 1, 2, and 3 received 0.03, 0.1 or 0.3 mg/kg of 1, respectively, in the same dose volume.
Blood samples (approximately 1.0 mL) were collected from the jugular vein of animals pre-dose and at approximately 10 and 30 min and 1, 3 and 24 h post-dose on Day 1.

20S proteasome [2] = assay: Ratio of chymotryptic to tryptic activity, titration of inhibitor in human samples; format: biochemical
Experimental: The percent inhibition (%I) is then calculated according to the following equation: [formula]
μt=activation factor determined upon titration of the proteasome inhibitor. For the proteasome inhibitor 1, βt=1.28 in human samples.
Complete activation of the 20S roteasome is achieved within 10 minutes.
βt=activation factor determined upon titration of the proteasome inhibitor. For the proteasome inhibitor 1, βt=1.28 in human samples.

[3] = test system: 20S proteasome in rat white blood cell lysates; assay: Ratio of chymotryptic to tryptic activity in rat white blood cell lysates; format: biochemical; conditions: fit of vc/vt
Description: Data was fitted as in Example 10, to give kc/kt=17.6± and βt=1.1±0.2 (FIG. 13).

20S proteasome [4] = assay: Ex vivo 20S proteasome activity in peripheral white blood cells of mice after single intravenous administration; set-up: species or system female CD2-F1 mice and female BALB/c mice
Experimental: (§1) The amount of 20S proteasome activity in the test sample is calculated according to the following formula: [formula]
(§2) Dose formulations of 1 were prepared daily during the course of the study. Dilutions were prepared from a stock solution. The stock solution of 1 was made up in 98% saline (0.9%), 2% ethanol with 0.1% ascorbic acid. Dilutions of the stock were made in the same vehicle.
(§3) Drugs were administered in vehicle intravenously (IV) using a dose volume of 100 μL per mouse or 1.0 mL/kg in rats. Control groups were administered with the vehicle (98% saline [0.9%], 2% ethanol, 0.1% ascorbic acid). Animals were dosed with 1 as a single IV bolus given either once or on multiple occasions.
(§4) Following IV dosing with 1, blood was withdrawn at various time points and peripheral white blood cells were isolated.
The vehicle was […] [0.9%], 2% ethanol, 0.1% ascorbic acid. Blood samples were collected at 1.0 and 24 h following administration. Due to the blood volume required in the 20S proteasome activity assay, groups of five mice were sacrificed at the same time and their blood pooled to generate single data points.

20S proteasome [5] = assay: Ex vivo 20S proteasome activity in peripheral white blood cells of rats after single intravenous administration; set-up: species or system female Wistar rats
Experimental: as §1, §2, §3, §4
Blood samples were collected at 1.0, 24 and 48 h following administration of 1.

20S proteasome [6] = assay: Ex vivo 20S proteasome activity in peripheral white blood cells of rats after repeat intravenous administration
Experimental: as §1, §3
In an additional repeat dose study, male Sprague-Dawley rats (250 to 450 g; n=6 per group) were treated with twice weekly intravenous doses of 1 (0.01 to 0.35 mg/kg/day in a dose volume of 1.0 mL/kg) for two weeks. […] Blood samples were collected 1.0 h after the last dose for evaluation of 20S proteasome activity.

20S proteasome [7] = target: T1, 20S proteasome (Rattus norvegicus, UniProt P28075)
T1 sequence (P28075 60-263): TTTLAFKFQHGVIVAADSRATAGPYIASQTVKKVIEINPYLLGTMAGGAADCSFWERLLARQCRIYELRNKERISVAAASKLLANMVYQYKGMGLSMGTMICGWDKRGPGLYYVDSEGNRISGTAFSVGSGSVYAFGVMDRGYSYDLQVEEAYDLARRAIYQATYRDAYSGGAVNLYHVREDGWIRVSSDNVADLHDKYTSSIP
Experimental: In two studies, female Wistar rats (150 to 200 g) were administered a single intravenous dose of 1 (0.03, 0.1 and 0.3 mg/kg in a dose volume of 1.0 mL/kg). […] Tissue samples were collected from liver and brain at 1.0, 24 and 48 h following administration for evaluation of 20S proteasome activity.

20S proteasome [8] = assay: Ex vivo 20S proteasome activity in primate white blood cells, twice weekly intravenous dosing for 4 weeks; set-up: species or system Cynomolgus monkeys
Experimental: Male and female Cynomolgus monkeys (2.2 to 3.5 kg) were assigned to four groups (5/sex/group). Each group received 0 (vehicle control), 0.045, 0.067 or 0.100 mg/kg/dose of 1 as a single intravenous injection in a dose volume of 0.3 mL/kg twice weekly for 4 weeks (days 1, 5, 8, 12, 15, 19, 22 and 26). […] Three males from the control, low- and mid-dose groups, two high-dose males, and three females/group were sacrificed at the end of treatment on Day 27. Two animals/sex/group were designated as recovery animals and received treatment for 4 weeks followed by 2 weeks of recovery; they were sacrificed on Day 41.
Blood was collected for 20S proteasome activity determination prior to treatment, at 1.0 h after dosing on Days 1, 8, 15 and 22, and at 1.0 h prior to dosing on Days 5, 12, 19 and 26; and on Days 31, 34, 38, and 41 (recovery sacrifice animals).

[9] = test system: purified 20S proteasome from rabbit reticulocytes (tryptic activity); assay: Tryptic activity of purified 20S proteasome (Rs substrate, fluorometry)
Experimental: The assay is based upon the SDS-inducible chymotrypsin-like and trypsin-like activities of free 20S proteasome particles. It uses fluorometry to measure the rate at which the 20S proteasome hydrolyzes an amide bond in a small peptide substrate.
The Rs substrate is dissolved to 10 mM in DMSO. The Rs substrate buffer, containing 20 mM HEPES, 0.5 mM EDTA, 0.6% DMSO, and 60 μM Rs substrate, is prepared.
20 μL of a test sample is added to a cuvette containing 2 mL of Rs substrate buffer at 37° C., and the reaction is allowed to run for 10 minutes. Complete activation of the 20S proteasome is achieved within 10 minutes. Consistent results are obtained for readings taken after 4 minutes and up to 10 minutes. The maximum linear slope for at least 1 minute of data is measured. If the rate is less than 1 pmol AMC/sec, the measurement is repeated using 20 μL of the test sample in 800 μL Rs buffer.
(§5) Chymotryptic and tryptic assays were performed as described in Examples 3 and 5 at increasing concentrations of the proteasome inhibitor 1.
Chymotryptic and tryptic assays were performed as described in Examples 3 and 5 at increasing concentrations of the proteasome inhibitor 1. The data was fitted to vc/vt=kc/kt*(1−f)/(1−f+βt*f), where kc/kt=2.88±0.03, βt=1.38±0.05, and %I=f*100 (FIG. 12).

[10] = test system: purified 20S proteasome from rabbit reticulocytes (chymotryptic activity); assay: Chymotryptic activity of purified 20S proteasome (Ys substrate, fluorometry)
Experimental: The assay is based upon the SDS-inducible chymotrypsin-like activity of free 20S particles. It uses fluorometry to measure the rate at which the 20S proteasome hydrolyzes an amide bond in a small peptide substrate. Measurement of this rate in the absence and in the presence of an inhibitor allows a determination of how enzyme is bound by inhibitor.
The Ys substrate is dissolved to 6 mM in DMSO. A 2% (2 g/100 mL) solution of SDS in MilliQ water is prepared in a glass bottle. The Ys substrate buffer, containing 20 mM HEPES, 0.5 mM EDTA, 0.035% SDS, 1% DMSO, and 60 μM Ys substrate, is prepared. The final pH of the Ys buffer is 8.0.
10 μL of a test sample is added to a cuvette containing 2 mL of Ys substrate buffer at 37° C., and the reaction is allowed to run for 10 minutes. Complete activation of the 20S proteasome is achieved within 10 minutes. Consistent results are obtained for readings taken after 4 minutes and up to 10 minutes. The maximum linear slope for at least 1 minute of data is measured. If the rate is less than 1 pmol AMC/sec, the measurement is repeated using 20 μL of the test sample.
as §5

20S proteasome [11] = target: T1, 20S proteasome; assay: Ex vivo 20S proteasome activity in rat blood and tissues 1.0 h after intravenous administration (third study); set-up: from tissue; host or cells: rat liver and brain (Wistar); blood, brain, colon, liver, muscle, prostate, testes (Sprague-Dawley); species or system male Sprague-Dawley rats
Experimental: Blood and tissue samples were collected 1.0 h following administration for evaluation of 20S proteasome activity. The tissues collected were brain, colon, liver, muscle (gastrocnemius), prostate and testes.

[12] = alternate daily IV for 14 days, 24 h after last dose
[13] = daily IV for 7 days, 24 h after last dose
[14] = once weekly IV for 8 weeks, 24 h after last dose
[15] = inferred from absence of 20S proteasome inhibition
[16] = 1.0 h after single IV 0.1 and 0.3 mg/kg

CC(C)C[C@H](NC(=O)[C@H](Cc1ccccc1)NC(=O)c1cnccn1)B(O)O [compound 1, N-(pyrazine)carbonyl-L-phenylalanine-L-leucine boronic acid]
clearance from the blood [1]: rapidly cleared from the blood | time to peak concentration (Tmax) ([1]; 0.3 mg/kg): ≤ 10 min | βt (activation factor determined upon titration of the proteasome inhibitor) (20S proteasome [2]): 1.28 | βt (activation factor of tryptic activity) [3]: 1.1±0.2 | 20S proteasome activity in white blood cells (20S proteasome [4]; 1.0 h after single IV 0.1 to 3.0 mg/kg, all dose groups): significant (p<0.05) dose-related decrease | 20S proteasome activity in white blood cells (20S proteasome [4]; 24 h after single IV 0.1 to 3.0 mg/kg): starts to recover | inhibition of 20S proteasome activity in peripheral white blood cells (overall) (20S proteasome [4]; single intravenous injection, mice): dose-dependent and reversible inhibition | 20S proteasome activity in white blood cells (20S proteasome [5]; 1.0 h after single IV 0.03 to 0.3 mg/kg): significant (p<0.05) dose-related decrease | 20S proteasome activity in white blood cells (20S proteasome [5]; 24 h after single IV 0.03 to 0.3 mg/kg): smaller, but remained significant (p<0.05) in the higher dose groups | 20S proteasome activity in white blood cells (20S proteasome [5]; 48 h after single IV 0.03 to 0.3 mg/kg): no longer significantly decreased | inhibition of 20S proteasome activity in peripheral white blood cells (overall) (20S proteasome [5]; single intravenous injection, rats): dose-dependent and reversible inhibition | extent of 20S proteasome inhibition compared with single dose (20S proteasome [6]; 24 h after 7 daily IV doses): greater than that observed 24 h after administration of a single intravenous dose | 20S proteasome activity in white blood cells (20S proteasome [6]; [12]): significant dose-related decrease | dose groups with significant (p<0.05) decrease in 20S proteasome activity (20S proteasome [6]; [12]): ≥ 0.2 mg/kg | 20S proteasome activity in white blood cells (20S proteasome [6]; [13]): dose-related decrease | doses with significant inhibition of 20S proteasome activity (20S proteasome [6]; [13]): ≥ 0.05 mg/kg | 20S proteasome activity in white blood cells (20S proteasome [6]; [14]): significant (p<0.05) dose-related decrease | dose groups with significant (p<0.05) decrease in 20S proteasome activity (20S proteasome [6]; [14]): ≥ 0.1 mg/kg | 20S proteasome activity in white blood cells (20S proteasome [6]; twice weekly IV for 2 weeks (4 doses, 0.01 to 0.35 mg/kg/day), male Sprague-Dawley rats, 1.0 h after last dose): dose-related decrease | dose groups with significant (p<0.05) decrease in 20S proteasome activity (20S proteasome [6]; twice weekly IV for 2 weeks, male Sprague-Dawley rats, 1.0 h after last dose): ≥ 0.03 mg/kg | 20S proteasome activity in rat liver (20S proteasome [7]; 1.0 h after single IV 0.03, 0.1 and 0.3 mg/kg): significant (p<0.05) dose-related decrease | 20S proteasome activity in rat liver (20S proteasome [7]; 24 h after single IV, high dose group 0.3 mg/kg): smaller, but remained significant (p<0.05) in the high dose group | 20S proteasome activity in rat liver (20S proteasome [7]; 48 h after single IV): returned to baseline | penetration of 1 into brain tissue (20S proteasome [7]; [15]): lack of penetration | 20S proteasome inhibition in brain tissue (20S proteasome [7]; single IV 0.03, 0.1 and 0.3 mg/kg, 1.0, 24 and 48 h): No 20S proteasome inhibition was observed | clinical condition of high-dose male (20S proteasome [8]; 0.100 mg/kg/dose IV twice weekly, Day 26 after receiving 8 doses): sacrificed in moribund condition | white blood cell 20S proteasome activity (20S proteasome [8]; 1.0 h after dosing, 0.045, 0.067 or 0.100 mg/kg/dose IV twice weekly): significant and dose-related decrease | white blood cell 20S proteasome activity (20S proteasome [8]; 72 hours after dosing, prior to the subsequent dose): recovered | 20S proteasome activity in white blood cells of the moribund animal (20S proteasome [8]; high-dose male at sacrifice on Day 26 after 8 doses): low residual 20S proteasome activity | βt (activation factor of tryptic activity) ([9]; fit of vc/vt, purified 20S proteasome from rabbit reticulocytes): 1.38±0.05 | effect on tryptic activity ([9]; increasing concentrations of 1, same concentration range): activation; also recorded: activated | βc (factor for chymotryptic site activity of E I complex; 0 = total inhibition) [10]: 0 | effect on chymotryptic activity ([10]; increasing concentrations of 1): fully inhibits; also recorded: fully inhibitable | 20S proteasome activity in peripheral white blood cells, colon, liver, muscle (gastrocnemius), and prostate (20S proteasome [11]; [16]): Significant (p<0.05) dose-related decreases | 20S proteasome inhibition in brain and testes (20S proteasome [11]; [16]): No 20S proteasome inhibition was observed | penetration of 1 into brain and testes (20S proteasome [11]; [15]): lack of 1 penetration

Source: US6613541B1, “Method for monitoring proteasome inhibitor drug action” (Millennium Pharmaceuticals, Inc., priority 1998, dated 2003)
